Measured values as given in article PMC12587545, “Noncytotoxic polymyxin derivatives enhance antibiotic action against multidrug-resistant Gram-negative bacteria” (Antimicrobial Agents and Chemotherapy, 2025).
“And” between values parts separate entries of the source, which are not always exact repeats. Equal values may be shown once.

What was measured:
[1] = test system: E. coli; assay: Checkerboard assay (antibiotic potentiation); assay type: cell-based, Escherichia coli; conditions: for Interpretation: antibiotic + compound 1; for MICantibiotic + compound: antibiotic MIC with 8 µg/mL (5 µM) compound 1; for MICantibiotic: antibiotic alone; for Potentiation: of antibiotic by 8 µg/mL (5 µM) compound 1
Procedure: (§1) The interaction between the compounds and the antibiotics was evaluated using the fractional inhibitory concentration (FIC) index. FIC indices of ≤0.5 is synergistic, 0.5 < × ≤ 4 is additive, whereas >4 is antagonistic ([34]).
(§2) Synergy was measured by the FIC index, which is the summation of the individual FICs of the antibiotic and the compound. The FIC is calculated by dividing the MIC of one agent in the presence of another by the MIC of the agent alone. […] The FBS studies were conducted by following a previously published protocol ([29], [50]). The FBS was inactivated by heating at 56°C for 30 min with constant swirling.

[2] = test system: E. cloacae; assay: Checkerboard assay (antibiotic potentiation); assay type: cell-based, Enterobacter cloacae; conditions: E. cloacae 121887 (colistin-resistant)
Procedure: The interaction between the compounds and the antibiotics was evaluated using the fractional inhibitory concentration (FIC) index. FIC indices of ≤0.5 is synergistic, 0.5 < × ≤ 4 is additive, whereas >4 is antagonistic ([34]). […] .
The bacterial isolates were acquired from ATCC or the Canadian Ward Surveillance (CANWARD) study ([56]). CANWARD isolates were collected from infected patients admitted to participating medical centers across Canada.
(§3) The antibiotic and compounds were serially diluted 2-fold in CAMHB along the x- and y-axis, respectively, on a 96-well plate that was subsequently incubated with equal volumes of bacterial inoculum overnight at 37°C. Wells containing only media were used as negative controls, and wells containing only bacteria were used as positive controls. Synergy was measured by the FIC index, which is the summation of the individual FICs of the antibiotic and the compound. The FIC is calculated by dividing the MIC of one agent in the presence of another by the MIC of the agent alone. Turbidity was confirmed with a Molecular Devices (United States) EMax Plus microplate reader at a wavelength of 590 nm. The FBS studies were conducted by following a previously published protocol ([29], [50]). The FBS was inactivated by heating at 56°C for 30 min with constant swirling.

[3] = test system: A. baumannii; assay: Checkerboard assay (antibiotic potentiation); assay type: cell-based, Acinetobacter baumannii; conditions: for MICantibiotic: antibiotic alone
[4] = test system: P. aeruginosa; assay: Checkerboard assay (antibiotic potentiation); assay type: cell-based, Pseudomonas aeruginosa; conditions: for MICantibiotic: antibiotic alone
[5] = test system: K. pneumoniae; assay: Checkerboard assay (antibiotic potentiation); assay type: cell-based, Klebsiella pneumoniae; conditions: for Interpretation: antibiotic + compound 1; for MICantibiotic: antibiotic alone; for Potentiation: of antibiotic by 8 µg/mL (5 µM) compound 1
Procedure: as §1, §2

[6] = test system: MDR Gram-negative bacteria clinical isolates; assay: Checkerboard assay, summary over strains; assay type: cell-based; conditions: of all 14 clinical isolates; number (%)
Procedure: as §1, §3

[7] = E. coli 94393 (colistin-resistant)
[8] = E. coli 94474 (colistin-resistant)
[9] = K. pneumoniae 113250 (colistin-resistant)

MICantibiotic + compound [1, 7]: 0.5 µg/mL
MICantibiotic [1, 7]: 0.5 µg/mL
MICantibiotic + compound [1, 8]: 0.25 µg/mL
MICantibiotic [1, 8]: 0.5 µg/mL
MICantibiotic + compound ([2]; antibiotic MIC with 8 µg/mL (5 µM) compound 1): 0.25 µg/mL
MICantibiotic ([2]; antibiotic alone): 0.25 µg/mL
MICantibiotic + compound ([3]; A. baumannii 92247 (colistin-resistant), antibiotic MIC with 4 µg/mL (2 µM) compound 1): 4 µg/mL
MICantibiotic ([3]; A. baumannii 92247 (colistin-resistant)): 8 µg/mL
MICantibiotic + compound ([3]; A. baumannii 110193, antibiotic MIC with 4 µg/mL (2 µM) compound 1): 64 µg/mL
MICantibiotic ([3]; A. baumannii 110193): 256 µg/mL
MICantibiotic + compound ([3]; A. baumannii AB027, antibiotic MIC with 4 µg/mL (2 µM) compound 1): 1024 µg/mL
MICantibiotic ([3]; A. baumannii AB027): 2048 µg/mL
MICantibiotic + compound ([3]; A. baumannii AB031, antibiotic MIC with 4 µg/mL (2 µM) compound 1): >64 µg/mL
MICantibiotic ([3]; A. baumannii AB031): >64 µg/mL
MICantibiotic + compound ([3]; A. baumannii ATCC 17978, antibiotic MIC with 8 µg/mL (5 µM) compound 3): 4 µg/mL
MICantibiotic + compound ([3]; A. baumannii ATCC 17978, antibiotic MIC with ¼ MIC (≤5 µM) of compound 1): 1 µg/mL
MICantibiotic + compound ([4]; P. aeruginosa 259-96916, antibiotic MIC with 8 µg/mL (5 µM) compound 1): 16 µg/mL
MICantibiotic ([4]; P. aeruginosa 259-96916): 512 µg/mL
MICantibiotic + compound ([4]; P. aeruginosa 262-101856, antibiotic MIC with 8 µg/mL (5 µM) compound 1): 4 µg/mL
MICantibiotic ([4]; P. aeruginosa 262-101856): 16 µg/mL
MICantibiotic + compound ([4]; P. aeruginosa 264-105354, antibiotic MIC with 8 µg/mL (5 µM) compound 1): 16 µg/mL
MICantibiotic ([4]; P. aeruginosa 264-105354): 128 µg/mL
MICantibiotic + compound ([4]; P. aeruginosa 101243 (colistin-resistant), antibiotic MIC with 8 µg/mL (5 µM) compound 1): 256 µg/mL
MICantibiotic ([4]; P. aeruginosa 101243 (colistin-resistant)): 512 µg/mL
MICantibiotic + compound ([4]; P. aeruginosa 114228 (colistin-resistant), antibiotic MIC with 8 µg/mL (5 µM) compound 1): 8 µg/mL
MICantibiotic ([4]; P. aeruginosa 114228 (colistin-resistant)): 8 µg/mL
MICantibiotic + compound ([4]; P. aeruginosa PAO1, antibiotic MIC with 8 µg/mL (5 µM) compound 1): 0.5 µg/mL
MICantibiotic + compound ([4]; P. aeruginosa PAO1, antibiotic MIC with 8 µg/mL (5 µM) compound 3): 4 µg/mL
MICantibiotic ([4]; P. aeruginosa PAO1): 4 µg/mL and 2 µg/mL
MICantibiotic + compound ([5]; K. pneumoniae 113250 (colistin-resistant), antibiotic MIC with 8 µg/mL (5 µM) compound 1): 0.5 µg/mL
MICantibiotic [5, 9]: 0.5 µg/mL
MICantibiotic ([5]; K. pneumoniae 116381): 8 µg/mL
Structure (SMILES): CC(C)(O/N=C(\C(=O)N[C@@H]1C(=O)N2C(C(=O)[O-])=C(C[n+]3ccccc3)CS[C@H]12)c1csc(N)n1)C(=O)O [Ceftazidime]
Interpretation [1, 7]: Additive (0.5 < × ≤ 4 is additive)
Potentiation [1, 7]: 1 fold
Interpretation [1, 8]: Additive (0.5 < × ≤ 4 is additive)
Potentiation [1, 8]: 2 fold
Interpretation ([2]; antibiotic + compound 1): Additive (0.5 < × ≤ 4 is additive)
Potentiation ([2]; of antibiotic by 8 µg/mL (5 µM) compound 1): 1 fold
Interpretation ([3]; A. baumannii 92247 (colistin-resistant), antibiotic + compound 1): Additive (0.5 < × ≤ 4 is additive)
Potentiation ([3]; A. baumannii 92247 (colistin-resistant), of antibiotic by 4 µg/mL (2 µM) compound 1): 2 fold
Interpretation ([3]; A. baumannii 110193, antibiotic + compound 1): Synergy (FIC indices of ≤0.5 is synergistic)
Potentiation ([3]; A. baumannii 110193, of antibiotic by 4 µg/mL (2 µM) compound 1): 4 fold
Interpretation ([3]; A. baumannii AB027, antibiotic + compound 1): Additive (0.5 < × ≤ 4 is additive)
Potentiation ([3]; A. baumannii AB027, of antibiotic by 4 µg/mL (2 µM) compound 1): 2 fold
Interpretation ([3]; A. baumannii ATCC 17978, antibiotic + compound 1): Synergy (FIC indices of ≤0.5 is synergistic)
Interpretation ([3]; A. baumannii ATCC 17978, antibiotic + compound 3): Additive (0.5 < × ≤ 4 is additive)
Potentiation ([3]; A. baumannii ATCC 17978, of antibiotic by 8 µg/mL (5 µM) compound 3): 1 fold
Potentiation ([3]; A. baumannii ATCC 17978, of antibiotic by ¼ MIC (≤5 µM) of compound 1): 16 fold
Interpretation ([4]; P. aeruginosa 259-96916, antibiotic + compound 1): Synergy (FIC indices of ≤0.5 is synergistic)
Potentiation ([4]; P. aeruginosa 259-96916, of antibiotic by 8 µg/mL (5 µM) compound 1): 32 fold
Interpretation ([4]; P. aeruginosa 262-101856, antibiotic + compound 1): Synergy (FIC indices of ≤0.5 is synergistic)
Potentiation ([4]; P. aeruginosa 262-101856, of antibiotic by 8 µg/mL (5 µM) compound 1): 4 fold
Interpretation ([4]; P. aeruginosa 264-105354, antibiotic + compound 1): Synergy (FIC indices of ≤0.5 is synergistic)
Potentiation ([4]; P. aeruginosa 264-105354, of antibiotic by 8 µg/mL (5 µM) compound 1): 8 fold
Interpretation ([4]; P. aeruginosa 101243 (colistin-resistant), antibiotic + compound 1): Additive (0.5 < × ≤ 4 is additive)
Potentiation ([4]; P. aeruginosa 101243 (colistin-resistant), of antibiotic by 8 µg/mL (5 µM) compound 1): 2 fold
Interpretation ([4]; P. aeruginosa 114228 (colistin-resistant), antibiotic + compound 1): Additive (0.5 < × ≤ 4 is additive)
Potentiation ([4]; P. aeruginosa 114228 (colistin-resistant), of antibiotic by 8 µg/mL (5 µM) compound 1): 1 fold
Interpretation ([4]; P. aeruginosa PAO1, antibiotic + compound 1): Synergy (FIC indices of ≤0.5 is synergistic)
Interpretation ([4]; P. aeruginosa PAO1, antibiotic + compound 3): Additive (0.5 < × ≤ 4 is additive)
Potentiation ([4]; P. aeruginosa PAO1, of antibiotic by 8 µg/mL (5 µM) compound 1): 4 fold
Potentiation ([4]; P. aeruginosa PAO1, of antibiotic by 8 µg/mL (5 µM) compound 3): 1 fold
Interpretation [5, 9]: Additive (0.5 < × ≤ 4 is additive)
Potentiation [5, 9]: 1 fold
Interpretation ([5]; K. pneumoniae 116381): Synergy (FIC indices of ≤0.5 is synergistic)
Potentiation ([5]; K. pneumoniae 116381): 64 fold
clinical isolates in which the antibiotic was synergized by compound 1 [6]: 5 (36%) strains
